Measured values taken from the COVID Moonshot data (paper PMC7615835).
Several values for one entry are separate records, joined by “and”; a condition that tells them apart may be missing. Equal entries are not always repeated.

biological target: SARS-CoV-2 Main Protease (SARS-CoV-2) (UniProt P0DTD1)

Compound | IC50
N#CC1(CS(=O)(=O)N2Cc3ccc(Cl)cc3C(C(=O)Nc3nncn3C3CC3)C2)CC1 (stereo not given) | 55.3 µM
O=C(Cn1ccc(=O)[nH]c1=O)N1CCN(c2ccccc2O)CC1 | > 99.5 µM
CNC(=O)C1(N2Cc3ccc(Cl)cc3C3(CCN(c4cncc5ccccc45)C3=O)C2)CC1 (stereo not given) | 0.0732 µM
O=C1CC(C(=O)N2CCN(c3cccc(Cl)c3)CC2)c2ccccc2N1 (stereo not given) | 20.9 µM
Cc1ccc(NC2=C(c3ccccc3)C(=O)N(Cc3cccnc3)C2=O)cc1Cl | > 99.5 µM
C=CC(=O)N(c1ccc(C(C)(C)C)cc1)C(C(=O)NCc1cccnc1)c1cccnc1 (stereo not given) | 49.9 µM
CN1CCN(c2ccc(Nc3cc(Cl)cc(CC(=O)Nc4cncc5ccccc45)c3)cc2F)CC1 | 2.8 µM
CCOC(=O)CNC(=O)C(c1cccnc1)N(C(=O)c1cocn1)c1ccc(C(C)(C)C)cc1 (stereo not given) | 9.53 µM
CC(=O)N1CCN(CC(=O)Nc2cncc3ccccc23)CC1 | > 99.5 µM and 51.7 µM
COCCCNCC1(C(=O)Nc2cncc3ccccc23)CCOc2ccc(Cl)cc21 (stereo not given) | 11.4 µM
O=C(Cc1cc(Cl)cc(Nc2nc(-c3ccc(Cl)c(Cl)c3)cs2)c1)Nc1cncc2ccccc12 | 2.46 µM
CCc1ccc(S(C)(=O)=O)cc1C(=O)N1CCC(C2CCNC2)CC1 (stereo not given) | > 99.5 µM
C=CC(=O)Nc1ccc(O)c(C(=O)NC[C@@H](O)c2ccc3ccccc3c2)c1 (stereo in doubt) | > 99.5 µM
CC(C)(C)c1ccc(N(C(=O)c2cocn2)C(C(=O)NCCc2cccc(F)c2)c2cc(=O)[nH]c3ccccc23)cc1 (stereo not given) | 1.16 µM
CCCNC(=O)CN1CC(C(=O)Nc2cncc3cc(S(C)(=O)=O)ccc23)c2cc(Cl)ccc2C1=O (stereo not given) | 0.127 µM and 0.209 µM
Cc1cc(O)cc(C)c1C[C@H](NC(=O)[C@H](N)CCCNC(=N)N)C(=O)N[C@@H](CCCCN)C(=O)N[C@@H](Cc1ccccc1)C(N)=O (stereo in doubt) | > 99 µM
O=C(Cc1cc(Cl)cc(Oc2cccc(=O)[nH]2)c1)Nc1cncc2ccccc12 | 1.98 µM
O=C(Nc1cncc2ccccc12)C1CN(S(=O)(=O)C2CCOC2)Cc2ccc(Cl)cc21 (stereo not given) | 0.152 µM
CC(=O)C(=O)N1CCN(Cc2cccc(Cl)c2)CC1 | > 99.5 µM
O=C(Cc1cc(Cl)cc(Nc2ccc(Br)c(Cl)c2Cl)c1)Nc1cncc2ccccc12 | 2.41 µM
O=C(Cc1cccc(Cl)c1)Nc1cncc2ccc(OCCN3CCCC3)cc12 | 1.13 µM
CSc1ncc(C#N)c(Nc2cc(Cl)cc(CC(=O)Nc3cncc4ccccc34)c2)n1 | 1.84 µM
CN(C)c1ccc(N(Cc2ccccc2)C(=O)Cn2nnc3ccccc32)cc1 | 5.05 µM
COCCN(C)S(=O)(=O)N1Cc2ccc(Cl)cc2C2(CCN(c3cncc4ccccc34)C2=O)C1 (stereo not given) | 0.993 µM

Compound | IC50
CN(C)C(=O)CNC(=O)C(c1cccnc1)N(C(=O)c1cocn1)c1ccc(C(C)(C)C)cc1 (stereo not given) | 29.2 µM
CC1CN(CCO)CCN1C(=O)CC1(C(=O)Nc2cncc3ccccc23)CCOc2ccc(Cl)cc21 (stereo not given) | 14.5 µM
CC(C)(C)c1ccc(N(C(=O)c2nc(CN3CCOCC3)cs2)C(C(=O)NCCc2cccc(F)c2)c2cccnc2)cc1 (stereo not given) | > 99.5 µM
O=C(COCC1(C(=O)Nc2cncc3ccccc23)CCOc2ccc(Cl)cc21)Nc1ncc[nH]1 (stereo not given) | 1.99 µM
OCCn1c(CSc2nc3ccccc3o2)nc2ccc(Cl)cc21 | 0.327 µM
COc1cc2c(cc1Nc1cc(Cl)cc(CC(=O)Nc3cncc4ccccc34)c1)oc1ccccc12 | 1.87 µM
CC(C)(C)NC(=O)CN1CC(C(=O)Nc2cncc3cc(F)ccc23)c2cc(Cl)ccc2C1=O (stereo not given) | 1.01 µM
CC(C)(C)OC(=O)NCCCNC(=O)C(c1cccnc1)N(C(=O)c1cocn1)c1ccc(C(C)(C)C)cc1 (stereo not given) | 3.39 µM
Cc1c(NC(=O)C2CCOc3ccc(Cl)cc32)cncc1N(C)C (stereo not given) | > 99.5 µM
CCS(=O)(=O)Nc1ccc2cncc(NC(=O)Cc3cccc(Cl)c3)c2c1 | 1.02 µM
O=C(Cc1cc(Cl)cc(NCc2ccc(OC(F)(F)F)cc2)c1)Nc1cncc2ccccc12 | 5.52 µM
O=C(CCl)N1CCN(Cc2cc(Cl)ccc2CNC(=O)N2CCOCC2)CC1 | 3.8 µM
CCCc1cc2c(cc1S(=O)(=O)N1CCN(c3ccccc3OC)CC1)OCO2 | > 99.5 µM
O=C(Nc1cncc2ccccc12)C1CN(S(=O)(=O)NC2CCC2)Cc2ccc(Cl)cc21 (stereo not given) | 0.0999 µM and 0.132 µM and 0.127 µM
O=c1[nH]c(Cc2cccc(C(F)(F)F)c2)nc2cnccc12 | > 99.5 µM
CS(=O)(=O)c1ccccc1C(=O)N1CCC(C2CCNC2)CC1 (stereo not given) | > 99.5 µM
O=c1[nH]c2ccc(NC(=S)Nc3ccccc3Cl)cc2[nH]1 | > 99.5 µM
N#CC1(CS(=O)(=O)N2Cc3ccc(Cl)cc3C3(CCN(c4cncc5ccccc45)C3=O)C2)CCS(=O)(=O)CC1 (stereo not given) | 0.211 µM
Cn1ncc2c(NC(=O)Cc3cccc(Cl)c3)cncc21 | 34 µM
CN1C(=O)CC(O)(C(=O)Nc2cncc3ccccc23)c2cc(Cl)ccc21 (stereo not given) | 20.7 µM
CC(C)(C)OC(=O)N1CC(NC(=O)C(c2cccnc2)N(C(=O)c2cocn2)c2ccc(C(C)(C)C)cc2)C1 (stereo not given) | 6.91 µM
O=C(CCl)Nc1cccc(N2CCCC2=O)c1 | 72 µM and 68.7 µM
O=C(Cc1cc(Cl)cc(NCc2cccc(F)c2Cl)c1)Nc1cncc2ccccc12 | 2.22 µM
CN(C)C(=O)COCC(=O)NC(C(=O)Nc1cncc2ccccc12)c1cccc(Cl)c1 (stereo not given) | 5.41 µM

Compound | IC50
O=C(Cc1cccc(Cl)c1)Nc1cccnc1 | 53.7 µM
O=C(Cc1cc(Cl)cc(Nc2ccccc2Oc2ccccc2)c1)Nc1cncc2ccccc12 | 2.19 µM
CN(C)S(=O)(=O)N1Cc2ccc(Cl)cc2C(C(=O)Nc2cnccc2C(F)(F)F)C1 (stereo not given) | 28.8 µM
COc1nc(Br)cnc1Nc1cc(Cl)cc(CC(=O)Nc2cncc3ccccc23)c1 | 2.05 µM
Cc1ccncc1NC(=O)Cc1cc(Cl)cc(-c2ccc(C3(C)CCO3)cc2)c1 (stereo not given) | 8.95 µM
O=C(Cc1cc(Cl)cc(NCc2cccc(Br)c2)c1)Nc1cncc2ccccc12 | 1.48 µM
O=C(Cc1cccc(Cl)c1)Nc1cncc2oncc12 | 50.6 µM
COCc1nc(C)c(C(=O)N(c2ccc(C(C)(C)C)cc2)C(C(=O)NCCc2cccc(F)c2)c2cccnc2)s1 (stereo not given) | > 99.5 µM
COC(=O)[C@@H]1C[C@H](NC(=O)C(c2cccnc2)N(C(=O)c2cocn2)c2ccc(C(C)(C)C)cc2)CN1C(=O)OC(C)(C)C (stereo in doubt) | 2.66 µM
O=C(Cc1cc(Cl)cc(N2CCN(Cc3ccc(C(F)(F)F)cc3)CC2)c1)Nc1cncc2ccccc12 | 4.28 µM
O=C(CCl)N1CCN(S(=O)(=O)c2c(F)cccc2F)CC1 | 3.43 µM and 3.14 µM
Cc1nc2ccc(N(C(=O)c3cnc[nH]3)C(C(=O)NCCc3cccc(F)c3)c3cccnc3)cc2o1 (stereo not given) | > 99 µM
CC1NC(=O)c2ccc(Cl)cc2C1C(=O)Nc1cncc2ccc(S(C)(=O)=O)cc12 (stereo not given) | 1.99 µM
CC1C(=O)NCCN1C(=O)CCCc1c[nH]c2ccccc12 (stereo not given) | > 99.5 µM
CC1(C(=O)Nc2cncc3ccccc23)CN(S(=O)(=O)CC2(C#N)CC2)Cc2ccc(Cl)cc21 (stereo not given) | 0.096 µM
CN(CCC#N)S(=O)(=O)N1Cc2ccc(Cl)cc2C2(CCN(c3cncc4ccccc34)C2=O)C1 (stereo not given) | 0.613 µM
CN1CCN(c2cc(Cl)cc(CC(=O)Nc3cncc4ccccc34)c2)[C@H](c2ccccc2)C1 (stereo in doubt) | 1.81 µM
C=CC(=O)N(c1ccc(C(F)(F)F)cc1)C(C(=O)NCCc1cccc(F)c1)c1cncc(C#N)c1 (stereo not given) | 11.1 µM
N#CC1(CS(=O)(=O)N2Cc3ccc(Cl)cc3[C@@H](C(=O)Nc3cncc4ccccc34)C2)CCOCC1 (stereo in doubt) | 15.2 µM
O=C(Nc1ccc(Cl)cc1)[C@@H](c1ccccc1)N1Cc2ccccc2C1=O (stereo in doubt) | > 99.5 µM
O=C(Nc1cncc2ccccc12)C1COCc2ccc(Cl)cc21 (stereo not given) | 8.08 µM
Nc1nn(C(=O)C2CCOc3ccc(Cl)cc32)c2ccncc12 (stereo not given) | 87.2 µM
C=CC(=O)N(c1ccc(C(C)(C)C)cc1)C(C(=O)NCCc1cccc(F)c1)c1cncc(C#N)c1 (stereo not given) | 7.48 µM
CNC(=O)CN1CC(C(=O)Nc2cncc3cccc(C)c23)c2cc(Cl)ccc2C1=O (stereo not given) | 0.361 µM

Compound | IC50
COc1ccc2c(NC(=O)C3CN(S(=O)(=O)CC4(C#N)CC4)Cc4ccc(Cl)cc43)cncc2c1 (stereo not given) | 0.342 µM
CC(C)(C)OC(=O)N(c1cc(Cl)cc(CC(=O)Nc2cncc3ccccc23)c1)C1CNC1 | 2.03 µM
CC(C)(C)c1ccc(N(C(=O)c2ccon2)C(C(=O)NCCc2cccc(F)c2)c2cccnc2)cc1 (stereo not given) | 4.26 µM
COc1ccc2c(NC(=O)Cc3cccc(Cl)c3)cncc2c1 | 8.63 µM
CC1(CS(=O)(=O)N2Cc3ccc(Cl)cc3C3(CCN(c4cncc5cc(S(C)(=O)=O)ccc45)C3=O)C2)CC1 (stereo not given) | 0.155 µM
CC(C)(C)c1ccc(N(C(=O)C2CCCO2)C(C(=O)NCCc2cccc(F)c2)c2cccnc2)cc1 (stereo not given) | 5.56 µM
COC(=O)c1cc(/C=c2\s/c(=C(/C#N)C(=O)NC(C)C)n(-c3ccc(OC)c(F)c3)c2=O)oc1C | > 99.5 µM
CCCc1cc2c(cc1S(=O)(=O)N1CCN(c3ncccn3)CC1)OCO2 | > 99.5 µM
COc1cccc(CC(=O)Nc2cncc3ccccc23)c1 | 30.5 µM
O=C(Nc1nncn1C1CC1)C1CCS(=O)(=O)c2ccccc21 (stereo not given) | 68.9 µM
CCOc1ccc(N(C(=O)c2cocn2)C(C(=O)NCCc2cccc(F)c2)c2cccnc2)cn1 (stereo not given) | > 99.5 µM
C[C@H]1CN(C(=O)OC(C)(C)C)CCN1c1cc(Cl)cc(CC(=O)Nc2cncc3ccccc23)c1 (stereo in doubt) | 2.19 µM
O=C(Cc1cc(Cl)cc(Nc2cccc(N3CCOCC3)c2)c1)Nc1cncc2ccccc12 | 2.44 µM
O=C(NC1N=Nc2ccccc21)C1CCOc2ccc(Cl)cc21 (stereo not given) | > 99.5 µM
CC(C)(C)c1ccc(N(C(=O)c2cocn2)C(C(=O)NCCc2cnc[nH]2)c2cccnc2)cc1 (stereo not given) | 14.5 µM
CC(C)(C)c1ccc(O)c(Nc2cc(Cl)cc(CC(=O)Nc3cncc4ccccc34)c2)c1 | 6.5 µM
CCc1nc(-c2nnc[nH]2)sc1C(=O)N(c1ccc(C(C)(C)C)cc1)C(C(=O)NCCc1cccc(F)c1)c1cccnc1 (stereo not given) | > 99.5 µM
O=c1[nH]c(Cc2cccc(S(F)(F)(F)(F)F)c2)nc2cnccc12 | > 99.5 µM
O=C(NNc1nc2cccnc2s1)c1ccc2ccncc2c1 | > 99.5 µM
CC(C)(C)c1ccc(N(C(=O)c2cc(=O)[nH]c(=O)[nH]2)C(C(=O)NCCc2cccc(F)c2)c2cccnc2)cc1 (stereo not given) | > 99.5 µM
Cc1ccnnc1NC(=O)Cc1cccc(Cl)c1 | > 99.5 µM
O=C(CC1(C(=O)Nc2cncc3ccccc23)CCOc2ccc(Cl)cc21)N1CCC2CS(=O)(=O)CC2C1 (stereo not given) | 1.67 µM
CC1(C(=O)Nc2cncc3cc(S(C)(=O)=O)ccc23)CNS(=O)(=O)c2ccc(Cl)cc21 (stereo not given) | 0.172 µM
